Measured values as given in PMC6979384, “Characterization of the plant homeodomain (PHD) reader family for their histone tail interactions” (Epigenetics & Chromatin, 2020).

Experiments:
Assay in all cases: Histone peptide microarray
Assay type in all cases: binding, human
PHRF1 (RP) = settings: GST-tagged PHRF1 (RP); for Array Heatmap signal (histone peptide microarray): sheet Array Heatmap, each array performed twice, total n = 4
Procedure, shortened: (§1)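 Mean ± SD of 4 replicate array intensities; GST-PHD finger at 0.5 μM against 293 PTM-bearing histone peptides.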

KDM5A (3) = settings: GST-tagged KDM5A (3); for Array Heatmap signal (histone peptide microarray): sheet Array Heatmap, each array performed twice, total n = 4
Procedure, shortened: as §1

BAZ2B = settings: GST-tagged BAZ2B; for Array Heatmap signal (histone peptide microarray): sheet Array Heatmap, each array performed twice, total n = 4
Procedure, shortened: as §1

PHF23 = settings: GST-tagged PHF23; for Array Heatmap signal (histone peptide microarray): sheet Array Heatmap, each array performed twice, total n = 4
Procedure, shortened: as §1

ING2 = settings: GST-tagged ING2; for Array Heatmap signal (histone peptide microarray): sheet Array Heatmap, each array performed twice, total n = 4
Procedure, shortened: as §1

KDM5A (1) = settings: GST-tagged KDM5A (1); for Array Heatmap signal (histone peptide microarray): sheet Array Heatmap, each array performed twice, total n = 4
Procedure, shortened: as §1

SP140L = settings: GST-tagged SP140L; for Array Heatmap signal (histone peptide microarray): sheet Array Heatmap, each array performed twice, total n = 4
Procedure, shortened: as §1

DPF2 (PPC2W2) = settings: GST-tagged DPF2 (PPC2W2 = Dual PHD + C2W2-type Zn-finger); for Array Heatmap signal (histone peptide microarray): sheet Array Heatmap, each array performed twice, total n = 4
Procedure, shortened: as §1

ING1 = settings: GST-tagged ING1; for Array Heatmap signal (histone peptide microarray): sheet Array Heatmap, each array performed twice, total n = 4
Procedure, shortened: as §1

PHF2 = settings: GST-tagged PHF2; for Array Heatmap signal (histone peptide microarray): sheet Array Heatmap, each array performed twice, total n = 4
Procedure, shortened: as §1

BPTF (PB) = settings: GST-tagged BPTF (PB = PHD + Bromodomain); for Array Heatmap signal (histone peptide microarray): sheet Array Heatmap, each array performed twice, total n = 4
Procedure, shortened: as §1

CHD5 (PCC) = settings: GST-tagged CHD5 (PCC = PHD + Dual Chromodomain); for Array Heatmap signal (histone peptide microarray): sheet Array Heatmap, each array performed twice, total n = 4
Procedure, shortened: as §1

PHF21A = settings: GST-tagged PHF21A; for Array Heatmap signal (histone peptide microarray): sheet Array Heatmap, each array performed twice, total n = 4
Procedure, shortened: as §1

TAF3 = settings: GST-tagged TAF3; for Array Heatmap signal (histone peptide microarray): sheet Array Heatmap, each array performed twice, total n = 4
Procedure, shortened: as §1

KDM4C (TTP) = settings: GST-tagged KDM4C (TTP = Tandem Tudor domain + PHD); for Array Heatmap signal (histone peptide microarray): sheet Array Heatmap, each array performed twice, total n = 4
Procedure, shortened: as §1

DIDO1 = settings: GST-tagged DIDO1; for Array Heatmap signal (histone peptide microarray): sheet Array Heatmap, each array performed twice, total n = 4
Procedure, shortened: as §1

KDM5B (3) = settings: GST-tagged KDM5B (3); for Array Heatmap signal (histone peptide microarray): sheet Array Heatmap, each array performed twice, total n = 4
Procedure, shortened: as §1

RAG2 = settings: GST-tagged RAG2; for Array Heatmap signal (histone peptide microarray): sheet Array Heatmap, each array performed twice, total n = 4
Procedure, shortened: as §1

AIRE (PP) = settings: GST-tagged AIRE (PP); for Array Heatmap signal (histone peptide microarray): sheet Array Heatmap, each array performed twice, total n = 4
Procedure, shortened: as §1

TRIM66 (PB) = settings: GST-tagged TRIM66 (PB = PHD + Bromodomain); for Array Heatmap signal (histone peptide microarray): sheet Array Heatmap, each array performed twice, total n = 4
Procedure, shortened: as §1

KDM7A = settings: GST-tagged KDM7A; for Array Heatmap signal (histone peptide microarray): sheet Array Heatmap, each array performed twice, total n = 4
Procedure, shortened: as §1

MLL5 = settings: GST-tagged MLL5; for Array Heatmap signal (histone peptide microarray): sheet Array Heatmap, each array performed twice, total n = 4
Procedure, shortened: as §1

ING4 = settings: GST-tagged ING4; for Array Heatmap signal (histone peptide microarray): sheet Array Heatmap, each array performed twice, total n = 4
Procedure, shortened: as §1

PHF8 = settings: GST-tagged PHF8; for Array Heatmap signal (histone peptide microarray): sheet Array Heatmap, each array performed twice, total n = 4
Procedure, shortened: as §1

MORC3 (CW) = settings: GST-tagged MORC3 (CW = CW-type Zn-finger); for Array Heatmap signal (histone peptide microarray): sheet Array Heatmap, each array performed twice, total n = 4
Procedure, shortened: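 GST-tagged PHD finger readers were expressed, purified and applied at 0.5 μM to a microarray of 293 synthetic histone peptides carrying single or combinatorial PTMs, using an optimized protocol. Binding signals are averages with standard deviation from 4 replicates.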

ING5 = settings: GST-tagged ING5; for Array Heatmap signal (histone peptide microarray): sheet Array Heatmap, each array performed twice, total n = 4
Procedure, shortened: as §1

CHD4 (PPCC) = settings: GST-tagged CHD4 (PPCC = Dual PHD + Dual Chromodomain); for Array Heatmap signal (histone peptide microarray): sheet Array Heatmap, each array performed twice, total n = 4
Procedure, shortened: as §1

CHD5 (PPCC) = settings: GST-tagged CHD5 (PPCC = Dual PHD + Dual Chromodomain); for Array Heatmap signal (histone peptide microarray): sheet Array Heatmap, each array performed twice, total n = 4
Procedure, shortened: as §1

ING3 = settings: GST-tagged ING3; for Array Heatmap signal (histone peptide microarray): sheet Array Heatmap, each array performed twice, total n = 4
Procedure, shortened: as §1

KDM5B (1) = settings: GST-tagged KDM5B (1); for Array Heatmap signal (histone peptide microarray): sheet Array Heatmap, each array performed twice, total n = 4
Procedure, shortened: as §1

PHF13 = settings: GST-tagged PHF13; for Array Heatmap signal (histone peptide microarray): sheet Array Heatmap, each array performed twice, total n = 4
Procedure, shortened: as §1

[1] = histone peptide array, arrays performed twice, n of 4

H3K4me3 + K14ac: H3 1-20
Array Heatmap signal (histone peptide microarray) (PHRF1 (RP)): 0.6002
Array Heatmap signal (histone peptide microarray) (KDM5A (3)): 0.8892
Array Heatmap signal (histone peptide microarray) (BAZ2B): 0.6127
Array Heatmap signal (histone peptide microarray) (PHF23): 0.8632
Array Heatmap signal (histone peptide microarray) (ING2): 0.9757
Array Heatmap signal (histone peptide microarray) (KDM5A (1)): 0.4609
Array Heatmap signal (histone peptide microarray) (SP140L): 0.3446
Array Heatmap signal (histone peptide microarray) (DPF2 (PPC2W2)): 0.7495
Array Heatmap signal (histone peptide microarray) (ING1): 0.9202
Array Heatmap signal (histone peptide microarray) (PHF2): 0.9532
Array Heatmap signal (histone peptide microarray) (BPTF (PB)): 0.8401
Array Heatmap signal (histone peptide microarray) (CHD5 (PCC)): 0.7404
Array Heatmap signal (histone peptide microarray) (PHF21A): 0.4155
Array Heatmap signal (histone peptide microarray) (TAF3): 0.7363
Array Heatmap signal (histone peptide microarray) (KDM4C (TTP)): 0.599
Array Heatmap signal (histone peptide microarray) (DIDO1): 1
Array Heatmap signal (histone peptide microarray) (KDM5B (3)): 0.7921
Array Heatmap signal (histone peptide microarray) (RAG2): 0.9484
Array Heatmap signal (histone peptide microarray) (AIRE (PP)): 0.3995
Array Heatmap signal (histone peptide microarray) (TRIM66 (PB)): 0.6346
Array Heatmap signal (histone peptide microarray) (KDM7A): 0.4569
Array Heatmap signal (histone peptide microarray) (MLL5): 0.8336
Array Heatmap signal (histone peptide microarray) (ING4): 0.6504
Array Heatmap signal (histone peptide microarray) (PHF8): 0.6468
Array Heatmap signal (histone peptide microarray) (MORC3 (CW)): 0.8691
Array Heatmap signal (histone peptide microarray) (ING5): 0.4275
Array Heatmap signal (histone peptide microarray) (CHD4 (PPCC)): 0.6173
Array Heatmap signal (histone peptide microarray) (CHD5 (PPCC)): 0.5519
Array Heatmap signal (histone peptide microarray) (ING3): 0.9261
Array Heatmap signal (histone peptide microarray) (KDM5B (1)): 0.7346
Array Heatmap signal (histone peptide microarray) (PHF13): 0.8156

H3K4me3 + K18ac: H3 1-20
Array Heatmap signal (histone peptide microarray) (PHRF1 (RP)): 0.7444
Array Heatmap signal (histone peptide microarray) (KDM5A (3)): 0.9747
Array Heatmap signal (histone peptide microarray) (BAZ2B): 0.4486
Array Heatmap signal (histone peptide microarray) (PHF23): 1
Array Heatmap signal (histone peptide microarray) (ING2): 0.9902
Array Heatmap signal (histone peptide microarray) (KDM5A (1)): 0.4457
Array Heatmap signal (histone peptide microarray) (SP140L): 0.3614
Array Heatmap signal (histone peptide microarray) (DPF2 (PPC2W2)): 0.7175
Array Heatmap signal (histone peptide microarray) (ING1): 1
Array Heatmap signal (histone peptide microarray) (PHF2): 1
Array Heatmap signal (histone peptide microarray) (BPTF (PB)): 0.7125
Array Heatmap signal (histone peptide microarray) (CHD5 (PCC)): 0.8106
Array Heatmap signal (histone peptide microarray) (PHF21A): 0.4388
Array Heatmap signal (histone peptide microarray) (TAF3): 0.7205
Array Heatmap signal (histone peptide microarray) (KDM4C (TTP)): 0.6519
Array Heatmap signal (histone peptide microarray) (DIDO1): 0.9924
Array Heatmap signal (histone peptide microarray) (KDM5B (3)): 0.8599
Array Heatmap signal (histone peptide microarray) (RAG2): 0.6973
Array Heatmap signal (histone peptide microarray) (AIRE (PP)): 0.4183
Array Heatmap signal (histone peptide microarray) (TRIM66 (PB)): 0.639
Array Heatmap signal (histone peptide microarray) (KDM7A): 0.4973
Array Heatmap signal (histone peptide microarray) (MLL5): 0.8685
Array Heatmap signal (histone peptide microarray) (ING4): 0.674
Array Heatmap signal (histone peptide microarray) (PHF8): 0.6791
Array Heatmap signal (histone peptide microarray) (MORC3 (CW)): 0.8723
Array Heatmap signal (histone peptide microarray) (ING5): 0.4874
Array Heatmap signal (histone peptide microarray) (CHD4 (PPCC)): 0.6241
Array Heatmap signal (histone peptide microarray) (CHD5 (PPCC)): 0.5532
Array Heatmap signal (histone peptide microarray) (ING3): 0.7492
Array Heatmap signal (histone peptide microarray) (KDM5B (1)): 0.7261
Array Heatmap signal (histone peptide microarray) (PHF13): 0.813

H3K4me3 + R8me2s + K9me3: H3 1-20
Array Heatmap signal, PHRF1 (RP) (PHRF1 (RP); [1]): 0.4616
Array Heatmap signal, KDM5A (3) (KDM5A (3); [1]): 0.7166
Array Heatmap signal, BAZ2B (BAZ2B; [1]): 0.4293
Array Heatmap signal, PHF23 (PHF23; [1]): 0.6635
Array Heatmap signal, ING2 (ING2; [1]): 0.784
Array Heatmap signal, KDM5A (1) (KDM5A (1); [1]): 0.429
Array Heatmap signal, SP140L (SP140L; [1]): 0.3193
Array Heatmap signal, DPF2 (PPC2W2) (DPF2 (PPC2W2); [1]): 0.6565
Array Heatmap signal, ING1 (ING1; [1]): 0.7489
Array Heatmap signal, PHF2 (PHF2; [1]): 0.8739
Array Heatmap signal, BPTF (PB) (BPTF (PB); [1]): 0.3866
Array Heatmap signal, CHD5 (PCC) (CHD5 (PCC); [1]): 0.7143
Array Heatmap signal, PHF21A (PHF21A; [1]): 0.4267
Array Heatmap signal, TAF3 (TAF3; [1]): 0.3814
Array Heatmap signal, KDM4C (TTP) (KDM4C (TTP); [1]): 0.4847
Array Heatmap signal, DIDO1 (DIDO1; [1]): 0.802
Array Heatmap signal, KDM5B (3) (KDM5B (3); [1]): 0.5614
Array Heatmap signal, RAG2 (RAG2; [1]): 0.4516
Array Heatmap signal, AIRE (PP) (AIRE (PP); [1]): 0.378
Array Heatmap signal, TRIM66 (PB) (TRIM66 (PB); [1]): 0.6066
Array Heatmap signal, KDM7A (KDM7A; [1]): 0.3751
Array Heatmap signal, MLL5 (MLL5; [1]): 0.7037
Array Heatmap signal, ING4 (ING4; [1]): 0.4627
Array Heatmap signal, PHF8 (PHF8; [1]): 0.5138
Array Heatmap signal, MORC3 (CW) (MORC3 (CW); [1]): 0.5559
Array Heatmap signal, ING5 (ING5; [1]): 0.3819
Array Heatmap signal, CHD4 (PPCC) (CHD4 (PPCC); [1]): 0.5208
Array Heatmap signal, CHD5 (PPCC) (CHD5 (PPCC); [1]): 0.5185
Array Heatmap signal, ING3 (ING3; [1]): 0.5388
Array Heatmap signal, KDM5B (1) (KDM5B (1); [1]): 0.5808
Array Heatmap signal, PHF13 (PHF13; [1]): 0.633
